We go through 89 compounds from a melting point compilation (Tetko et al.; mined from patent text by program, amines drawn as free bases though some values may be those of a salt).

In general, melting point refers to the temperature of the solid-liquid transition. Compound `CC(=O)N1CCC(C(=O)Nc2ccc(-n3nc(C(F)(F)F)cc3C(F)(F)F)cc2)CC1` had a melting point of 94 to 95 °C.
The compound `O=C(O)C(=O)CC(=O)c1cc(CCc2ccccc2)cn1Cc1ccc(F)cc1` returned a melting point of 135 to 137 °C.
The compound `CN(C)CCOc1ccc(Cl)c(C(=O)O)c1Cl` registered a melting point of 234 to 236 °C.
In the case of `Nc1ccc2c(c1)C(=O)N(CCO)CO2`, the melting point lay in the range of 94 to 96 °C.
Next, `Nc1ncc(Sc2ncccc2O)s1`: 128 to 130 °C.
In turn, `COc1cc(CNc2cc(Cl)c(N=CN(C)C)c(Cl)c2)cc(OC)c1` showed a melting point of 124 to 125 °C.
`COc1ccc2c(=O)sc(C(=O)O)cc2c1` displayed a melting point of 278 to 279 °C.
The figure for `COc1cc2c(c(N(C(C)=O)C(C)=O)c1)CC(C)O2` (centres undefined) is 56 to 57 °C; for `COc1ccc(F)cc1C(C)(C)CC(O)(C(=O)Nc1ccccc1)C(F)(F)F` (centres undefined) it is 83 to 85 °C; for `CN1C(=O)C(c2c[nH]c3ccc(F)cc23)=C(c2c[nH]c3ccc(F)cc23)C1=O` it is > 290 °C.
In turn, `Cc1onc(-c2ccccc2)c1-c1ccccc1` registered a melting point of 95.5 to 96.2 °C.
Next, `CCOC(=O)C(O)(CC(=O)c1ccc(-n2ccnc2)cc1)C(=O)OCC`: 155 to 156 °C.
As to `Cc1cc(C(=O)OC(C)(C)C)c(NC(=O)Nc2ccc(Oc3ccccc3)cc2)s1`, the melting point lay in the range of 130 to 132 °C.
Consider `CN1C(=O)C2(COc3cc4c(cc32)OCCO4)c2c(-c3cc(O)[nH]n3)cccc21` (centres undefined), for which the melting point was > 250 °C.
The figure for `Cc1cc2c(cc1O)C(C)(C)CC1(CC(C)(C)c3cc(OCCCO)c(C)cc3O1)O2` (centres undefined) is 175 to 177 °C; for `NNc1nc(Cl)nc2c(Cl)cc(Cl)cc12` it is > 280 °C.
Compound `O=C1CCC(C(=O)Nc2ccccc2C(=O)c2ccccc2)O1` (centres undefined) gave a melting point of 100 to 102 °C.
Turning to `O=C(Nc1ccc(C(=O)N2C[C@@H]3CCCN3C(=S)c3ccccc32)cc1)c1ccccc1-c1ccccc1`, the melting point is 234 to 236 °C.
`N#Cc1nn(-c2c(Cl)cc(Cl)cc2Cl)c(N)c1C#N` displayed a melting point of 267 to 271 °C.
The compound `CC1(O)CC(=O)OC(CCc2ccc(Cl)cc2)C1` (centres undefined) gave a melting point of 61 to 64 °C.
`O=C1CCCc2cc(OCCCCl)ccc21` yielded a melting point of 85 to 87 °C.
Next, `Nc1cc(C(F)(F)F)ccc1-c1cc2ccccc2[nH]1`: 164 to 166 °C.
`CCOC(=O)COc1ccc(NS(C)(=O)=O)c(C)c1` yielded a melting point of 93 to 94 °C.
`O=C1Nc2cccnc2N(C(=O)NCCN2CCCCC2CCCCN2CCCCC2)c2ccccc21` (centres undefined) showed a melting point of 154 to 155 °C.
Take `CCCCCNC(=O)[C@H](Cc1ccc(OCC(=O)O)c(-c2nn[nH]n2)c1)NC(=O)[C@H](Cc1ccccc1)NC(=O)OC(C)(C)C`: the melting point was 121 to 123 °C.
For `CC(=O)NNc1ccnc2c(NC(=O)c3ccccc3[N+](=O)[O-])cccc12`, the melting point is 232 to 235 °C.
Compound `O=c1c(Cc2ccncc2)cc2cccnc2n1-c1cccc([N+](=O)[O-])c1` had a melting point of 230 °C.
`CCCCCCCCCCCCCCCCCCOc1cc(OCCCOc2ccc(S(C)=O)cc2)cc(C(=O)OC)c1` (centres undefined) returned a melting point of 86 to 88 °C.
Next, `O=C(O)CCc1ccc(OCC2CCN(c3ccncc3)CC2)cc1`: 303 to 307 °C; `Cc1nc(N)nc(N)c1N=Nc1cccc(Cl)c1`: 249 °C; `COc1cc2c(cc1S(=O)(=O)c1cccs1)[C@@H](N1CCCC1=O)[C@H](O)C(C)(C)O2` (relative stereo): 135 to 136 °C.
Compound `CN1CCC(Sc2ccc3[nH]c(=O)[nH]c3c2)CC1` registered a melting point of 214 to 215 °C.
The compound `Cc1cc2c(cc1N1CCc3ccccc31)OC(=O)C2C` (centres undefined) came in with a melting point of 176 to 178 °C.
In the case of `COC(OC)C(C)Nc1cc(OCc2ccccc2)ccc1[N+](=O)[O-]` (centres undefined), the melting point is 57 to 62 °C.
With `COc1c(Cl)ccc(-c2nc(N)c(C(C)OC)c(C(=O)O)n2)c1F` (centres undefined), the melting point is 165 to 167 °C.
Take `O=C(OCC(=O)c1ccccc1[N+](=O)[O-])c1ccccc1`: the melting point fell in the range of 77 to 80 °C.
With `CCOC(=O)c1cnc(OC)nc1Cl`, the melting point lay within 26 to 28 °C.
The figure for `COc1cc(OC)c(C23CC4CC(CC(C4)C2)C3)cc1C#Cc1ccc(C(=O)O)cc1` is 152 to 154 °C; for `O=c1ccsc2c3ccccc3n(CCN3CCOCC3)c12` it is 136 to 137 °C; for `CCCCCCCN(C)C(=O)Nc1ccc(F)cc1NC(=O)c1cc(C(C)(C)C)c(O)c(C(C)(C)C)c1` it is 164 to 167 °C.
As to `Nc1ccc(CP2(=O)OCCCO2)cc1`, the melting point is 172 to 173 °C.
The compound `COC(=O)c1c(C(F)F)nc(C(F)(F)F)c(C(C#N)=C2OCCO2)c1CC(C)C` showed a melting point of 121 to 122 °C.
Take `CCOC(=O)Nc1nc(C)c(-c2nc3ccccc3c(=O)n2-c2ccc(C)cc2)s1`: the melting point lay within 220 to 222 °C.
For `CC(C)N(CCN1C(=O)/C(=N/NC(N)=O)c2ccccc21)Cc1ccccc1`, the melting point was in the range of 193 to 194 °C.
`CCOC(=O)C(O)CCn1cnc2c(=O)[nH]c(N)nc21` (centres undefined) registered a melting point of 161 to 163 °C.
In turn, `CC(C)N1C(=S)NC(c2ccccc2)c2cc3c(cc21)OCO3` (centres undefined) returned a melting point of 214 to 218 °C.
Next, `COc1ccc(Br)c2c1CN(Nc1ccncc1)CC2`: 172 to 173 °C; `CC(=O)NN=C1CC2(CCN(C)CC2)OC1C` (centres undefined): 164 to 167 °C.
The figure for `O=C(O)c1ccc(C(=O)Nc2cccc([N+](=O)[O-])c2)cc1` is 319 °C.
On to `O=C(CC1CCCCC1=O)c1ccc(Br)cc1` (centres undefined), for which the melting point is 78 to 80 °C.
The figure for `NC(=O)c1ccc(C(F)(F)F)cc1-c1cnccc1Oc1cccc(CCC(=O)N2CCN(Cc3ccc4c(c3)OCO4)CC2)c1` is 140 to 141 °C; for `CN1CCC(c2c(O)cc(O)c3c(=O)cc(-c4ccccc4Cl)oc23)C1CN` (centres undefined) it is 218 to 219 °C; for `CC(=O)NC[C@H]1CN(c2ccc(N3CCC(n4nnc(-c5ccccc5)n4)CC3)c(F)c2)C(=O)O1` it is 212 to 214 °C.
On to `COC(=O)c1ccc(-c2nc(Nc3cc(OC)c(OC)c(OC)c3)ncc2C#N)cc1`, for which the melting point lay in the range of 206 to 208 °C.
The compound `COc1cccc(-c2cc3[nH]nc(I)c3s2)c1` registered a melting point of 159 to 163 °C.
Turning to `O=C1Nc2cc(Cl)ccc2OC1CCO` (centres undefined), the melting point is 135 to 138 °C.
As for `COC(=O)COc1noc2ccc([N+](=O)[O-])cc12`, the melting point was in the range of 72 to 73.5 °C.
As to `O=C1NC(=O)C(c2ccc(Cl)o2)O1` (centres undefined), the melting point was in the range of 112 to 114 °C.
Next, `O=C(Cc1cccc(Oc2ccccc2)c1)Nc1cc(Cl)c(Cl)cc1[N+](=O)[O-]`: 135 to 137 °C.
`c1ccc(-c2nnc3c4ccccc4c(N4CCCC4)nn23)cc1` gave a melting point of 208 °C.
`CCCC(=O)c1cc(-c2ccc(C)cc2)no1` registered a melting point of 86 to 87 °C.
The figure for `COc1cc2c(cc1OC)CCCC(C(=O)N1CCN(Cc3cc(OC)c(OC)c(OC)c3)CC1COC(C)=O)=C2` (centres undefined) is 135 to 139 °C.
`Cc1cc(C=O)c(OCCCCCCc2ccccc2)c(C=O)c1`: the melting point came to 64 °C.
In the case of `CS(=O)(=O)c1ccc(Oc2cc(OCC3CCOCC3)c3[nH]c(C4=NCC(CCO)S4)cc3c2)cc1` (centres undefined), the melting point was in the range of 104 to 105 °C.
Compound `COc1cc(OC)c(C=O)cc1I` had a melting point of 170 to 172 °C.
With `CCC(C#N)(COc1ccc(Cl)cc1)c1cccnc1` (centres undefined), the melting point is 82.1 °C.
Next, `COc1cc(COc2nn(-c3ccccc3)cc2/C=C/C=O)ccc1OCc1nc(-c2ccco2)oc1C`: 134 to 135 °C; `CCCn1nc2c(N)nc3c(c2c1CCCc1cc(C(C)C)no1)CCCC3`: 147 to 149 °C.
Take `CCOC(=O)c1cc(-n2c(OC)nc(C(F)(F)F)cc2=O)c(F)cc1Cl`: the melting point was in the range of 91 to 93 °C.
`COC(=O)C(C(C)C)N1CC(NC(=O)Cc2ccccc2)C1=O` (centres undefined) displayed a melting point of 105 to 107 °C.
`O=C1NC(=O)C(CC#Cc2ccc(Cl)cc2)(S(=O)(=O)c2ccc(F)cc2)S1` (centres undefined): the melting point is 176 to 177 °C.
`Cc1cc(C(=O)O)ccc1C1=CC(C)(C)CC(C)(C)C1` registered a melting point of 118 to 120 °C.
`CN(C(=O)CNc1nc(-c2ccc(C(F)(F)F)cc2)nc(-c2ccccc2)c1Cl)C1CC1`: the melting point lay within 188 to 189 °C.
`CS(=O)c1ccc(C2ON2S(=O)(=O)c2ccccc2)cc1` (centres undefined) showed a melting point of 115 to 118 °C.
As to `CCOC(Cn1cc[nH]c1=O)c1ccc(OC)c(OC)c1` (centres undefined), the melting point was 134 °C.
As for `CSc1cn(C)c2cc(-c3ccccc3Cl)sc2c1=O`, the melting point was 175 to 177 °C.
Compound `Fc1ccc2[nH]cc(CC3C=CCN(Cc4ccccc4)C3)c2c1` (centres undefined) returned a melting point of 133 to 136 °C.
Next, `[O-][N+]1=C(c2ccccc2F)c2cc(Cl)ccc2N=C(C2CCCN2C=NO)C1` (centres undefined): 168 to 172 °C; `CC(C)(C)c1cc(-c2ccc(N)cc2)cc(C(C)(C)C)c1O`: 113 to 114 °C; `CN(CCOc1ccc(C=CC(=O)N2CCc3c([nH]c4ccccc34)C2c2ccc3c(c2)CCO3)cc1)C(=O)OC(C)(C)C` (centres undefined): 110 °C.
For the compound `COP(=O)(OC)c1cc(Oc2ccc(C(F)(F)F)cc2Cl)ccc1[N+](=O)[O-]`, the melting point came out at 83 °C.
Turning to `Oc1ccc2c(c1)C13CCCCC1N(C2)N(CC1CC1)CC3` (single isomer, unassigned; (+)), the melting point was in the range of 151 to 153 °C.
The compound `O=C1OCCC1n1nc(-c2c(-c3ccccc3)nn3ccccc23)ccc1=O` (centres undefined) yielded a melting point of 179 to 180 °C.
The figure for `O=C1O[C@@H](CO)CN1c1ccc(C2=CCSCC2)c(F)c1` is 119 to 122 °C.
Turning to `CCc1c(Cl)nc(NC=O)nc1Cl`, the melting point was 116 to 118 °C.
`CC(=O)Nc1ccccc1-c1ccc(F)cc1` gave a melting point of 123 to 124 °C.
Consider `O=Cc1ccc(-c2ccc3ncnc(Nc4ccc(OCc5cccc(F)c5)c(Cl)c4)c3c2)cc1`, for which the melting point lay in the range of 237 to 238 °C.
The compound `c1c(N2CCC3(CC2)OCCO3)nc(N2CCNCC2)nc1N1CCC2(CC1)OCCO2` displayed a melting point of 122 to 126 °C.
Next, `Nc1cc(C(F)(F)F)c([N+](=O)[O-])cc1C(=O)O`: 237 °C.
